Assay: xn = mol fraction of the nth substance listed
Conditions: Liquid, Vibrating tube method

CCC[N+]1(C)CCCCC1.O=S(=O)([N-]S(=O)(=O)C(F)(F)F)C(F)(F)F + COc1ccccc1
mass density [kg/m3]
Conditions	100 kPa	10000 kPa	15000 kPa	20000 kPa	25000 kPa	30000 kPa	35000 kPa	40000 kPa	45000 kPa	50000 kPa
298.15 K, x2 = 0.1015	1393.9	1400.6	1403.7	1406.9	1409.8	1412.7	1415.3	1418.1	1420.9	1423.5
298.15 K, x2 = 0.201	1376.9	1383.6	1386.7	1389.9	1392.8	1395.6	1398.2	1401	1403.8	1406.4
298.15 K, x2 = 0.3001	1356.9	1363.7	1366.6	1369.8	1372.7	1375.6	1378.4	1381.2	1383.9	1386.5
298.15 K, x2 = 0.4102	1330.3	1337.1	1340.2	1343.3	1346.2	1349.1	1351.9	1354.7	1357.6	1360.2
298.15 K, x2 = 0.5003	1304.5	1311.4	1314.4	1317.5	1320.4	1323.3	1326.2	1329.1	1331.9	1334.5
298.15 K, x2 = 0.6003	1269.5	1276.3	1279.4	1282.6	1285.5	1288.4	1291.3	1294	1296.7	1299.3
298.15 K, x2 = 0.7003	1225.7	1232.4	1235.5	1238.6	1241.5	1244.4	1247.3	1250.1	1252.8	1255.3
298.15 K, x2 = 0.8	1169.1	1175.8	1178.9	1182	1184.8	1187.7	1190.6	1193.3	1196.1	1198.6
298.15 K, x2 = 0.9	1093.1	1099.7	1102.6	1105.7	1108.4	1111.3	1114.1	1117	1119.8	1122.2
318.15 K, x2 = 0.1015	1377.3	1384.1	1387.6	1390.6	1393.7	1396.8	1399.9	1402.8	1405.7	1408.4
318.15 K, x2 = 0.201	1360	1366.8	1370.3	1373.3	1376.4	1379.5	1382.6	1385.4	1388.3	1391
318.15 K, x2 = 0.3001	1339.7	1346.6	1350	1353	1356.1	1359.2	1362.3	1365.2	1368.1	1370.8
318.15 K, x2 = 0.4102	1312.9	1319.9	1323.3	1326.4	1329.6	1332.7	1335.9	1338.8	1341.7	1344.5
318.15 K, x2 = 0.5003	1286.7	1293.8	1297.3	1300.4	1303.6	1306.7	1309.9	1312.8	1315.7	1318.5
318.15 K, x2 = 0.6003	1251.6	1258.8	1262.2	1265.4	1268.7	1271.8	1275	1277.9	1280.8	1283.5
318.15 K, x2 = 0.7003	1207.7	1215	1218.3	1221.5	1224.8	1227.8	1231	1233.9	1236.8	1239.5
318.15 K, x2 = 0.8	1150.9	1158.4	1161.7	1164.8	1168.1	1171.1	1174.2	1177.1	1180.1	1182.9
318.15 K, x2 = 0.9	1074.5	1082	1085.2	1088.4	1091.8	1094.8	1098	1100.8	1103.7	1106.6
348.15 K, x2 = 0.1015	1351.4	1358.7	1362.3	1366	1369.4	1372.6	1375.9	1378.9	1382.1	1384.8
348.15 K, x2 = 0.201	1333.7	1341.1	1344.8	1348.5	1352	1355.3	1358.4	1361.5	1364.6	1367.5
348.15 K, x2 = 0.3001	1313	1320.5	1324.2	1328	1331.5	1334.8	1338.1	1341.2	1344.4	1347.3
348.15 K, x2 = 0.4102	1285.7	1293.4	1297.2	1301	1304.6	1308	1311.3	1314.5	1317.7	1320.7
348.15 K, x2 = 0.5003	1259.5	1267.3	1271	1274.7	1278.4	1281.8	1285.2	1288.4	1291.6	1294.6
348.15 K, x2 = 0.6003	1224.1	1232.1	1235.9	1239.6	1243.2	1246.6	1250.1	1253.3	1256.5	1259.6
348.15 K, x2 = 0.7003	1179.9	1188.1	1191.9	1195.6	1199.3	1202.6	1206.1	1209.4	1212.7	1215.8
348.15 K, x2 = 0.8	1122.6	1130.9	1134.8	1138.7	1142.5	1145.9	1149.4	1152.8	1156	1159.2
348.15 K, x2 = 0.9	1046	1054.5	1058.3	1062.2	1066	1069.5	1073	1076.5	1079.7	1083
